The supplement of paper PMC10307832

Experiments:
Test in all cases: relative viability (nuclei count vs DMSO), 5 days (fraction); higher = more cells survive
AZD1208 + Palbociclib = compound: N[C@@H]1CCCN(c2c(/C=C3\SC(=O)NC3=O)cccc2-c2ccccc2)C1 [AZD1208] + CC(=O)c1c(C)c2cnc(Nc3ccc(N4CCNCC4)cn3)nc2n(C2CCCC2)c1=O [Palbociclib] (partner 0.5 µM)
How it was run: (§1)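 Relative viability was taken as the ratio of nuclei in treated wells to nuclei in vehicle wells. Lung cancer cell lines in 1536-well plates received compounds by pin tool one day after seeding, either one drug alone or a fixed anchor-drug dose plus five library-drug doses (not always all listed) in √10 steps. Nuclei were counted on 4× images after 5 days of treatment, and values are medians of duplicate plates.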

AZD1208 + Dasatinib = compound: N[C@@H]1CCCN(c2c(/C=C3\SC(=O)NC3=O)cccc2-c2ccccc2)C1 [AZD1208] + Cc1nc(Nc2ncc(C(=O)Nc3c(C)cccc3Cl)s2)cc(N2CCN(CCO)CC2)n1 [Dasatinib] (partner 0.075 µM)
How it was run: as §1

XMD14-99 + Linsitinib = compound: CN1CCN(CC1)C2=CC(=C(C=C2)NC3=NC(=C(S3)C(=O)C4=C(C=CC=C4Cl)Cl)N)OC [XMD14-99] + C[C@]1(O)C[C@@H](c2nc(-c3ccc4ccc(-c5ccccc5)nc4c3)c3c(N)nccn32)C1 [Linsitinib] (partner 1 µM)
How it was run: as §1

XMD14-99 + Bortezomib = compound: CN1CCN(CC1)C2=CC(=C(C=C2)NC3=NC(=C(S3)C(=O)C4=C(C=CC=C4Cl)Cl)N)OC [XMD14-99] + CC(C)C[C@H](NC(=O)[C@H](Cc1ccccc1)NC(=O)c1cnccn1)B(O)O [Bortezomib] (partner 0.002 µM)
How it was run: as §1

| Cell Line | relative viability (AZD1208 + Palbociclib; first compound 0.08 µM) | relative viability (AZD1208 + Palbociclib; first compound 0.253 µM) | relative viability (AZD1208 + Palbociclib; first compound 0.8 µM) | relative viability (AZD1208 + Palbociclib; first compound 2.53 µM) | relative viability (AZD1208 + Palbociclib; first compound 8 µM) | relative viability (AZD1208 + Dasatinib; first compound 0.08 µM) | relative viability (AZD1208 + Dasatinib; first compound 0.253 µM) | relative viability (AZD1208 + Dasatinib; first compound 0.8 µM) | relative viability (AZD1208 + Dasatinib; first compound 2.53 µM) | relative viability (AZD1208 + Dasatinib; first compound 8 µM) | relative viability (XMD14-99 + Linsitinib; first compound 0.08 µM) | relative viability (XMD14-99 + Linsitinib; first compound 0.8 µM) | relative viability (XMD14-99 + Linsitinib; first compound 2.53 µM) | relative viability (XMD14-99 + Linsitinib; first compound 8 µM) | relative viability (XMD14-99 + Bortezomib; first compound 0.08 µM) | relative viability (XMD14-99 + Bortezomib; first compound 0.8 µM) | relative viability (XMD14-99 + Bortezomib; first compound 2.53 µM) | relative viability (XMD14-99 + Bortezomib; first compound 8 µM) |
| --- | --- | --- | --- | --- | --- | --- | --- | --- | --- | --- | --- | --- | --- | --- | --- | --- | --- | --- |
| 201T | 0.371 | 0.366 | 0.351 | 0.35 | 0.34 | 0.579 | 0.557 | 0.522 | 0.504 | 0.51 | 1.05 | 1.02 | 0.995 | 1 | 1.11 | 1.08 | 1.03 | 1.03 |
| A549 |  |  |  |  |  |  |  |  |  |  | 0.636 | 0.599 | 0.629 | 0.505 |  |  |  |  |
| A-427 | 0.546 | 0.548 | 0.495 | 0.551 | 0.527 | 0.553 | 0.644 | 0.531 | 0.659 | 0.431 | 1.15 | 1.08 | 1.01 | 0.904 | 0.933 | 0.924 | 0.77 | 0.829 |
| ABC-1 | 0.815 | 0.631 | 0.474 | 0.563 | 0.444 | 0.667 | 0.509 | 0.522 | 0.69 | 0.563 | 0.906 | 0.707 | 0.659 | 0.642 | 0.296 | 0.343 | 0.346 | 0.281 |
| BEN | 0.565 | 0.446 | 0.472 | 0.505 | 0.431 | 0.334 | 0.243 | 0.285 | 0.299 | 0.314 | 0.872 | 0.816 | 0.81 | 0.762 | 0.88 | 0.901 | 0.924 | 0.531 |
| CAL-12T | 0.501 | 0.483 | 0.569 | 0.434 | 0.448 | 0.316 | 0.393 | 0.329 | 0.48 | 0.464 | 0.796 | 0.826 | 0.709 | 0.641 | 1.07 | 0.954 | 0.899 | 0.634 |
| COR-L23 | 0.288 | 0.312 | 0.256 | 0.295 | 0.244 | 0.471 | 0.508 | 0.479 | 0.452 | 0.523 | 0.865 | 0.806 | 0.891 | 0.478 | 1 | 0.816 | 0.86 | 0.576 |
| COR-L 105 | 0.37 | 0.344 | 0.379 | 0.38 | 0.43 | 0.34 | 0.34 | 0.308 |  | 0.356 | 0.924 | 0.665 | 0.879 | 0.703 | 0.841 | 0.805 | 0.614 | 0.473 |
| Calu-6 |  |  |  |  |  |  |  |  |  |  | 0.918 | 0.918 | 0.883 | 0.732 | 0.944 | 0.875 | 0.85 | 0.598 |
| ChaGo-K-1 | 0.905 | 0.969 | 0.874 | 0.906 | 0.884 | 0.657 | 0.624 | 0.518 | 0.539 | 0.514 |  |  |  |  | 1.06 | 1.02 | 0.964 | 0.92 |
| EBC-1 |  |  |  |  |  |  |  |  |  |  | 0.885 | 0.77 | 0.762 | 0.702 | 0.57 | 0.503 | 0.384 | 0.285 |
| EKVX | 0.383 | 0.41 | 0.336 | 0.332 | 0.419 | 0.637 | 0.245 | 0.51 | 0.498 | 0.48 | 1.01 | 1.05 | 0.993 | 0.81 | 0.965 | 0.998 | 0.983 | 0.736 |
| EMC-BAC-2 | 0.518 | 0.51 | 0.504 | 0.494 | 0.432 | 0.301 | 0.319 | 0.321 | 0.32 | 0.264 | 0.804 | 0.81 | 0.775 | 0.676 | 0.989 | 1.08 | 0.995 | 0.923 |
| EPLC-272H | 0.363 | 0.34 | 0.326 | 0.308 | 0.373 | 0.3 | 0.363 | 0.286 | 0.305 | 0.252 | 1.14 | 1.21 | 1.4 | 1.02 | 0.886 | 1.01 | 0.904 | 0.912 |
| H3255 | 0.299 | 0.307 | 0.333 | 0.314 | 0.326 | 0.438 | 0.413 | 0.362 | 0.385 | 0.43 | 0.999 | 0.871 | 0.765 | 0.694 | 0.729 | 0.895 | 0.532 | 0.297 |
| HARA | 0.268 | 0.258 | 0.246 | 0.291 | 0.261 | 0.284 | 0.273 | 0.236 | 0.261 | 0.284 | 0.901 | 0.946 | 0.701 | 0.605 | 1.15 | 1.14 | 0.922 | 0.867 |
| HCC-15 | 0.748 | 0.872 | 0.68 | 0.711 | 0.657 | 0.57 | 0.487 | 0.489 | 0.492 | 0.368 | 0.91 | 0.902 | 0.826 | 0.702 | 1.04 | 0.999 | 0.896 | 0.769 |
| HCC-44 | 1.01 | 0.941 | 0.976 | 0.968 | 1.02 |  |  |  |  |  | 0.719 | 0.692 | 0.708 | 0.61 | 0.882 | 0.823 | 0.933 | 0.806 |
| HCC-78 | 0.464 | 0.427 | 0.466 | 0.446 | 0.452 | 0.421 | 0.439 | 0.328 | 0.35 | 0.34 | 0.526 | 0.477 | 0.509 | 0.446 | 0.443 | 0.482 | 0.461 | 0.47 |
| HCC-366 | 0.408 | 0.482 | 0.376 | 0.404 | 0.245 | 0.625 | 0.64 | 0.479 | 0.493 | 0.287 | 0.619 | 0.641 | 0.781 | 0.602 | 1.04 | 1.05 | 1.03 | 0.884 |
